This assay deals with T1, His6-AspH315–758 (human aspartate/asparagine-β-hydroxylase, AspH) (Homo sapiens, UniProt Q12797).
T1 construct: N-Terminally His6-tagged human AspH315–758 (His6-AspH315–758) was produced in E. coli BL21 (DE3) cells; made in house; host or cells: E. coli BL21 (DE3), pET-28a(+) vector
T1 sequence (Q12797 315-758): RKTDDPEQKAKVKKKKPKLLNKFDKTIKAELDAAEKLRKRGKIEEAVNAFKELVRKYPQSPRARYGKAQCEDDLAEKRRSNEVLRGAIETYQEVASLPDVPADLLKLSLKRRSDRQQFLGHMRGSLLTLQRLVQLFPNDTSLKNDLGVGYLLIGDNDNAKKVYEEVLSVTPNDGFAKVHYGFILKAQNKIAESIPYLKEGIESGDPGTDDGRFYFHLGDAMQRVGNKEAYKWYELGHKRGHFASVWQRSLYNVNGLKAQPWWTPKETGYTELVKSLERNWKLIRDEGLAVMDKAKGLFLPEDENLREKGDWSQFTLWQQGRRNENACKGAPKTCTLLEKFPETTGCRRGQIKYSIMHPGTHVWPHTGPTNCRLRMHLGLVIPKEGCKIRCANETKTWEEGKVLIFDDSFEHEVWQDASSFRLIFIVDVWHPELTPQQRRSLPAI
The assay is described as follows: SPE-MS AspH inhibition assay (LOPAC screen at fixed 20 μM and IC50 dose-response), hydroxylation of cyclic peptide hFX-CP101–119. The settings on record: for IC50: 50 nM His6-AspH315–758, 1.0 μM hFX-CP101–119, 3 μM 2OG, 2 μM Fe(II), 50 mM HEPES pH 7.5, 20 °C, mean ± SD, n = 2 (2,4-PDCA n = 10), read-out: IC50. It counts as biochemical.

Where [1] appears, read: LOPAC Plate 4, compound at 20 uM, substrate conversion.
The mark [2] stands for this setting: LOPAC Plate 4, compound at 20 uM, read-out: % inhibition.
Where [3] appears, read: plate 5 (Pfitzer), test compounds at fixed 20 μM.
Setting [4] is: plate 5 (Pfitzer), test compounds at fixed 20 μM, mean conversion DMSO 32.88.
The mark [5] stands for this setting: LOPAC compound at fixed 20 uM, plate 1, normalised to DMSO and 2,4-PDCA controls.
The mark [6] stands for this setting: LOPAC compound at fixed 20 uM, substrate conversion, plate 1.
Where [7] appears, read: LOPAC compound at 20uM, conversion of substrate peptide.

Counter-ions that a name gives are not always drawn. Like-named read-outs stand apart in the source and are kept apart here.

By inhibition is commonly meant the drop in the measured response relative to a control, in per cent. Turning to `C[N+](C)(C)CCOC(=O)CCC(=O)OCC[N+](C)(C)C` [Succinylcholine chloride], the “% conversion” value was 39.43% and the inhibition at 20 µM is -8.69%.

As to `Nc1ccc(S(=O)(=O)Nc2ccnn2-c2ccccc2)cc1` [Sulfaphenazole], the “% conversion” value under setting [1] was 26.59%.

For the molecule `CC1=C(CC(=O)O)c2cc(F)ccc2/C1=C\c1ccc(S(C)(=O)=O)cc1` [Sulindac sulfone], the “% conversion” value under setting [1] was determined as 33.98%.

In the case of `CC1=C(CC(=O)O)c2cc(F)ccc2/C1=C\c1ccc([S+](C)[O-])cc1` (stereo not drawn) [Sulindac], the “% conversion” value under setting [1] was 35.56%. Also, the inhibition at 20 µM under setting [2] came to 2.67%.

Regarding `CCN(CC)CCNC(=O)c1c(C)[nH]c(/C=C2\C(=O)Nc3ccc(F)cc32)c1C` [Sunitinib malate], for the setting “LOPAC compound at 20uM, plate 2, conversion of substrate peptide”, the “Plate 2 (% conversion)” value turned out to be 11.67%. Besides, the inhibition at 20 µM (LOPAC compound at 20uM, plate 2, normalised to DMSO and 2,4-PDCA controls, read-out: Plate 2 (% inhibition)) came out at 72.5%.

As to `CCN(CC)CCNC(=O)c1c(C)[nH]c(/C=C2\C(=O)Nc3ccc(F)cc32)c1C` [Sunitinib], under setting [3], the “Plate 5 (% inhibition)” value stood at 67.34%. Moreover, the “Plate 5 (% conversion)” value under setting [4] came out at 13.39%.

With `CC(=O)/C=C1\C(=O)N(C)c2ccccc21` [Supercinnamaldehyde], the “Plate 1 (% inhibition)” value under setting [5] is on record as -3.46%. Besides, the “Plate 1 (% conversion)” value under setting [6] was found to be 37.03%.

The Inhibition is the change of the read-out against control, counted positive when it falls. In the case of `Cc1ccc(C(=O)Nc2ccc(S(=O)(=O)[O-])c3cc(S(=O)(=O)[O-])cc(S(=O)(=O)[O-])c23)cc1NC(=O)c1cccc(NC(=O)Nc2cccc(C(=O)Nc3cc(C(=O)Nc4ccc(S(=O)(=O)[O-])c5cc(S(=O)(=O)[O-])cc(S(=O)(=O)[O-])c45)ccc3C)c2)c1.[Na+].[Na+].[Na+].[Na+].[Na+].[Na+]` [Suramin sodium salt, reference compound], where the note is “AspH activity, fixed compound concentration 20 μM, initial LOPAC screen, 0.5%v/v DMSO”, the “Inhibition at 20 µM [%]” value is 103.3%. In addition, the “% conversion” value under setting [1] was 1.22%.

For `O=C(Nc1ccncc1)c1cc([N+](=O)[O-])ccc1Cl` [T0070907], the “Plate 3 (% conversion)” value under setting [7] stood at 31.53%.

With `Brc1c(Br)c(Br)c2[nH]cnc2c1Br` [TBBz], the “Plate 1 (% conversion)” value was 32.96% and the “Plate 1 (% inhibition)” value was 8.67%.

Usually IC50 stands for the concentration needed to halve the response being measured. With `O=C(O)CCN(O)C(=O)CCCCCCCCC1CC1` [TC-E 5002, reference compound], the 50% inhibitory concentration (IC50) was found to be 6.66 ± 0.69 µM.

As to `Clc1cnc(Oc2ccc(Oc3ncc(Cl)cc3Cl)cc2)c(Cl)c1` [TCPOBOP], the “% conversion” value amounted to 30.30%.

Consider `CCN1/C(=C/C(C)=O)Sc2ccc(OC)cc21` [TG003], for which, under setting [7], the “Plate 3 (% conversion)” value stood at 40.97%.

As a reminder, the % inhibition is the drop in the measured response relative to a control, in per cent. Consider `Cl.O=c1[nH]oc2c1CCNC2` [THIP hydrochloride], for which the “% conversion” value turned out to be 36.67%. The “% inhibition” value (20 µM) is given as -0.58%.

As for `CCN(CC)CCCCCCCCOC(=O)c1cc(OC)c(OC)c(OC)c1.Cl` [TMB-8 hydrochloride], the “Plate 1 (% inhibition)” value under setting [5] is reported as -14.63%. Besides, under setting [6], the “Plate 1 (% conversion)” value was 40.78%.

With `CCCCCCC(=O)OC1CC(C)(C)NC(C)(C)C1.Cl` [TMPH hydrochloride], the “Plate 3 (% conversion)” value under setting [7] came out at 40.82%.

As to `CP(=O)(O)C1=CCNCC1` [TPMPA], the “% conversion” value came to 27.88%.

For the molecule `C/C(=C\c1ccc(C(=O)O)cc1)c1ccc2c(c1)C(C)(C)CCC2(C)C` [TTNPB], the “% conversion” value under setting [1] was 26.33%.

Take `CC/C(=C(\c1ccccc1)c1ccc(OCCN(C)C)cc1)c1ccccc1` [Tamoxifen citrate]: the “% conversion” value under setting [1] was determined as 11.73%. Besides, the inhibition at 20 µM under setting [2] was determined as 72.5%.

Take `NCCS(=O)(=O)O` [Taurine]: the “% conversion” value under setting [1] worked out at 39.69%. The inhibition at 20 µM under setting [2] is -9.43%.

Take `CCOC(=O)c1ccc(C#Cc2ccc3c(c2)C(C)(C)CCS3)nc1` [Tazarotene]: the “% conversion” value under setting [1] is recorded as 39.09%.

For the molecule `O=c1[nH]c(=O)n(C2CCCO2)cc1F` (stereo not drawn) [Tegafur], the “% conversion” value under setting [1] amounted to 31.54%.

`Cc1scc2c1N(C(=O)CN1CCN(C)CC1)c1ccccc1NC2=O` [Telenzepine dihydrochloride]: the “% conversion” value under setting [1] came to 38.43%. In addition, the inhibition at 20 µM under setting [2] was -5.75%.

As for `CO[C@H]1C[C@@H]2CC[C@@H](C)[C@@](O)(O2)C(=O)C(=O)N2CCCC[C@H]2C(=O)O[C@H]([C@H](C)C[C@@H]2CC[C@@H](OC(=O)C(C)(CO)CO)[C@H](OC)C2)CC(=O)[C@H](C)/C=C(\C)[C@@H](O)[C@@H](OC)C(=O)[C@H](C)C[C@H](C)/C=C/C=C/C=C/1C` [Temsirolimus], under setting [3], the “Plate 5 (% inhibition)” value was determined as 52.39%. Moreover, the “Plate 5 (% conversion)” value under setting [4] was determined as 18.48%.

With `CC(C)(C)NCC(O)c1cc(O)cc(O)c1.CC(C)(C)NCC(O)c1cc(O)cc(O)c1.O=S(=O)(O)O` (stereo not drawn) [Terbutaline hemisulfate], the “% inhibition” value (LOPAC Plate 4, compound at 20 uM) worked out at 5.48%. The “% conversion” value under setting [1] is reported as 34.60%.

On to `CC(C)(C)c1ccc(C(O)CCCN2CCC(C(O)(c3ccccc3)c3ccccc3)CC2)cc1` (stereo not drawn) [Terfenadine], for which the “% conversion” value under setting [1] turned out to be 45.15%. Further, under setting [2], the inhibition at 20 µM is -25.4%.

For the molecule `COc1cc2c(cc1OC)C1CC(=O)C(CC(C)C)CN1CC2` (stereo not drawn) [Tetrabenazine], the “% conversion” value under setting [1] came to 27.36%.

Consider `CCCCNc1ccc(C(=O)OCCN(C)C)cc1` [Tetracaine hydrochloride], for which the “% conversion” value under setting [1] was found to be 40.45%. The inhibition at 20 µM under setting [2] was -11.7%.

`CCCCCCCCCCCCCCSCC(=O)O` [Tetradecylthioacetic acid]: the “% conversion” value under setting [1] was 26.50%. The inhibition at 20 µM under setting [2] is 29.2%.

For the molecule `CC[N+](CC)(CC)CC` [Tetraethylammonium chloride], the “% conversion” value is given as 26.96%.

For the molecule `CCN(CC)C(=S)SSC(=S)N(CC)CC` [Tetraethylthiuram disulfide], the “% conversion” value under setting [1] turned out to be 22.31%.

With `c1ccc2c(c1)CCCC2C1=NCCN1` (stereo not drawn) [Tetrahydrozoline hydrochloride], under setting [1], the “% conversion” value is on record as 39.98%. Also, the inhibition at 20 µM under setting [2] is -10.3%.

With `CC(C)NP(=O)(NC(C)C)OP(=O)(NC(C)C)NC(C)C` [Tetraisopropyl pyrophosphoramide], the “% conversion” value was 27.56%.

With `c1ccc(C2CN3CCSC3=N2)cc1` (stereo not drawn) [Tetramisole hydrochloride], under setting [1], the “% conversion” value worked out at 38.57%.

Turning to `C/C=C(/C)C(=O)O[C@H]1C(C)=C2[C@H]([C@@H]1OC(=O)CCCCCCC)[C@@](C)(OC(C)=O)C[C@H](OC(=O)CCC)[C@@]1(O)[C@H]2OC(=O)[C@@]1(C)O` [Thapsigargin], the “% conversion” value is listed as 31.20%.

As for `Cn1cnc2c1c(=O)[nH]c(=O)n2C` [Theobromine], under setting [1], the “% conversion” value is 26.15%.

Regarding `Cn1c(=O)c2[nH]cnc2n(C)c1=O` [Theophylline], the “% conversion” value is on record as 39.26% and the inhibition at 20 µM was -8.17%.

As for `NC(=S)c1ccc[n+]([C@@H]2O[C@@H](COP(=O)([O-])OP(=O)(O)OC[C@H]3O[C@@H](n4cnc5c(N)ncnc54)C(OP(=O)([O-])O)[C@H]3O)C(O)C2O)c1.[Na+]` (stereo partly drawn) [Thio-NADP sodium], the “% conversion” value under setting [1] is 24.90%.

As to `S=C(NC1CCCCC1)N1CCC(c2cnc[nH]2)CC1` [Thioperamide maleate], the “% conversion” value is 37.27%. Also, the inhibition at 20 µM under setting [2] was -2.35%.

As to `CSc1ccc2c(c1)N(CCC1CCCCN1C)c1ccccc1S2` (stereo not drawn) [Thioridazine hydrochloride], the “% conversion” value under setting [1] is reported as 43.98%.

`CCN(CC)CCNC(=O)c1cc(S(C)(=O)=O)ccc1OC` [Tiapride hydrochloride]: the “% conversion” value under setting [1] turned out to be 37.21%. Also, the inhibition at 20 µM under setting [2] is -2.16%.

As to `CN(C)c1cc(NC(=O)CNC(C)(C)C)c(O)c2c1C[C@H]1C[C@H]3[C@H](N(C)C)C(O)=C(C(N)=O)C(=O)[C@@]3(O)C(O)=C1C2=O` [Tigecycline, tigecycline, reference compound], the half-inhibitory concentration (IC50) is 7.6 ± 1.95 µM. Also, the inhibition at 20 µM (AspH activity, fixed compound concentration 20 μM, initial LOPAC screen, 0.5%v/v DMSO, read-out: Inhibition at 20 µM [%]) worked out at 95.3%. The “Plate 5 (% inhibition)” value under setting [3] was found to be 90.85%. The “Plate 5 (% conversion)” value under setting [4] was found to be 5.39%.

With `CCCCS(=O)(=O)N[C@@H](Cc1ccc(OCCCCC2CCNCC2)cc1)C(=O)O` [Tirofiban hydrochloride monohydrate], under setting [1], the “% conversion” value amounted to 29.35%.

As for `Clc1ccc2nsnc2c1NC1=NCCN1` [Tizanidine hydrochloride], under setting [1], the “% conversion” value stood at 37.51%.

Regarding `Cc1ccc(S(=O)(=O)NC(=O)NN2CCCCCC2)cc1` [Tolazamide], the “% conversion” value under setting [1] is 36.66%.

With `CCCCNC(=O)NS(=O)(=O)c1ccc(C)cc1` [Tolbutamide], the “% conversion” value under setting [1] worked out at 37.22%. For the same molecule, the inhibition at 20 µM under setting [2] is -2.2%.

On to `Cc1ccc(O)c([C@H](CCN(C(C)C)C(C)C)c2ccccc2)c1` [Tolterodine], for which the “Plate 5 (% conversion)” value stood at 15.18% and the “Plate 5 (% inhibition)” value was 62.09%.

For the molecule `CNCC[C@@H](Oc1ccccc1C)c1ccccc1` [Tomoxetine], the “% conversion” value under setting [1] stood at 38.97%. The inhibition at 20 µM under setting [2] was -7.33%.

The record behind these values is PMC7251097, “Aspartate/asparagine-β-hydroxylase: a high-throughput mass spectrometric assay for discovery of small molecule inhibitors” (Scientific Reports, 2020).
